As a reminder, the IC50 is the point on the concentration scale where inhibition reaches its midpoint.

Here are results for one molecule from publication PMC6954722 (Stem Cells Translational Medicine, 2019).

The target of the assay is Smoothened (Mus musculus, UniProt P56726). The experiment in a line: displacement of BODIPY-cyclopamine. The assay is classed as cell-based.
Chain of Smoothened (P56726 33-793): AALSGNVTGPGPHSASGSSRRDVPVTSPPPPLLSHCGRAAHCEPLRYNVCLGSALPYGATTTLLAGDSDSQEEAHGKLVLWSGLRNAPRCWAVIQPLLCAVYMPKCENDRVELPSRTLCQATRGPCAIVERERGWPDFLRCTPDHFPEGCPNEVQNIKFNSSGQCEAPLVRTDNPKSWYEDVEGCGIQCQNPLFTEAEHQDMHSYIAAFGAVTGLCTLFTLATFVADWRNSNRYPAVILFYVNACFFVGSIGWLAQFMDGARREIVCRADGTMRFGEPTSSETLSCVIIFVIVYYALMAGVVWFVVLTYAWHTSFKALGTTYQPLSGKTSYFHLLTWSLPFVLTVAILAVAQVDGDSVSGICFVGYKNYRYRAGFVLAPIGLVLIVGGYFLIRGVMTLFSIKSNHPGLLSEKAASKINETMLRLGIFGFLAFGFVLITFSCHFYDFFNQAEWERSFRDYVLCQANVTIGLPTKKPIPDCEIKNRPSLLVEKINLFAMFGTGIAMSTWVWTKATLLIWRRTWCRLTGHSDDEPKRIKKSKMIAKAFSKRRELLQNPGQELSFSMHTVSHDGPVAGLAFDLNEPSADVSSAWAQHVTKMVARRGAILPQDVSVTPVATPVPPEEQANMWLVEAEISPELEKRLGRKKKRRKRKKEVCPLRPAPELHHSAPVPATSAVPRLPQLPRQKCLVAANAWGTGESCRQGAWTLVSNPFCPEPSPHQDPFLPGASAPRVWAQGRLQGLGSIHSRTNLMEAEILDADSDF

`O=[N+]([O-])c1ccc(S(=O)(=O)N2CCN(c3ccccc3)CC2)cc1` [compound #5, 1‐[(4‐nitrophenyl)sulfonyl]‐4‐phenylpiperazine] came in with an IC50 of 88 ± 3.7 µM.
